The values that follow are results of earlier work, collected in patent US9110064B2, “Methods for diagnosis and treatment of endometrial cancer” (THE REGENTS OF THE UNIVERSITY OF CALIFORNIA, priority 2005, dated 2015).

The test system of this data set is PMP22. As to conditions: patients with Charcot Marie Tooth Type I.

For the compound `CC(=O)[C@H]1CC[C@H]2[C@@H]3CCC4=CC(=O)CC[C@]4(C)[C@H]3CC[C@]12C` [progesterone], the PMP22 levels result was “restore normal PMP22 levels” and the disease phenotype result is given as “ameliorated the disease phenotype”.
